Patent publication US20250026743A1, “HETEROARYL-LINKED ANALOGS AS MGLU5 NEGATIVE ALLOSTERIC MODULATORS AND METHODS OF MAKING AND USING THE SAME” (Vanderbilt University, priority 2021, published 2025)
Read-outs that look alike come from different tables or passages of the source.

Biological target: T1, hmGlu5 (Homo sapiens, UniProt P41594)
T1 construct: expressed in transfected cells; host or cells: HEK 293A
Assay: mGlu5 Ca2+ flux assay in HEK 293A cells (negative allosteric modulation of glutamate EC80 response)
Type: cell-based
Settings: for remaining activity at 30 µM: HEK293-A, read-out: hmGlu5 NAM Emin (%); for IC50: HEK 293A cells, Ca2+ flux, glutamate EC80, >10,000 = decrease without plateau, read-out: hmGlu5 NAM IC50
Outline: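 HEK 293A cells stably expressing rat or human mGlu5, Fluo-4 AM loaded; compound added 2.3 min before glutamate EC20, then EC80; Ca2+ fluorescence peak amplitudes (F/F0) normalised to glutamate max. IC50 from 4-parameter logistic fit, 10-point 1:3 curves, top 30 μM; partial NAMs plateau above 10% Glu Max.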

T1 sequence (P41594 21-1212): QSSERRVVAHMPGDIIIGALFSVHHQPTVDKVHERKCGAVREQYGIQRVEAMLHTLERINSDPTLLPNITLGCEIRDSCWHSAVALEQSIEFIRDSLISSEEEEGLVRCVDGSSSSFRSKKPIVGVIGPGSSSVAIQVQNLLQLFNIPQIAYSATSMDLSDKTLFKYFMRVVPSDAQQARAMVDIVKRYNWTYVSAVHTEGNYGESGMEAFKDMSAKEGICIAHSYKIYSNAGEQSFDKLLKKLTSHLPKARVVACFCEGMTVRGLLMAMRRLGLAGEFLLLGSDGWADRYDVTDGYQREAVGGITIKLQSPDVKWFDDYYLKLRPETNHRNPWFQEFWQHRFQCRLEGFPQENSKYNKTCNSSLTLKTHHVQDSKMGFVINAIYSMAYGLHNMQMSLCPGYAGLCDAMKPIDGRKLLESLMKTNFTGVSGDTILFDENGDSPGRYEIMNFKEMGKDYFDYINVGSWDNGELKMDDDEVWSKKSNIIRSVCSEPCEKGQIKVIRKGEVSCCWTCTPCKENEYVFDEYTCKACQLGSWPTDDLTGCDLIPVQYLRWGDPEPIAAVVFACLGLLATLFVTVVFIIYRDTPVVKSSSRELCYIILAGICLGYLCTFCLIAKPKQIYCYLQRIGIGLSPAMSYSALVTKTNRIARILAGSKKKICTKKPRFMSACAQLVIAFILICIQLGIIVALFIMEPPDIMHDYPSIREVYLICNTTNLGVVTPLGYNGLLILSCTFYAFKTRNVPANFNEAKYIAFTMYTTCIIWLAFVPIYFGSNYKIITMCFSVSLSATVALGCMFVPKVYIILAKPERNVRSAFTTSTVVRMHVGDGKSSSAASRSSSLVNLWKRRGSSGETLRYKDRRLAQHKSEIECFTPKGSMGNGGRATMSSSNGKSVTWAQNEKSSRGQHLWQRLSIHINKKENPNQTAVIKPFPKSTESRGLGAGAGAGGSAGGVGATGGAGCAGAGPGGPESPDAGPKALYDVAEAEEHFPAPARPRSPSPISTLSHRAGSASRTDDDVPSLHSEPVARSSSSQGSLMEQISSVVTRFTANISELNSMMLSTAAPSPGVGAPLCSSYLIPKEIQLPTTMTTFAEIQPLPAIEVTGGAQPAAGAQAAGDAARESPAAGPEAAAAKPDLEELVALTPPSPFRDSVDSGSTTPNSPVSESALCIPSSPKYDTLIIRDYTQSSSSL

SMILES | remaining activity at 30 µM (% Glu max at 30 μM) | IC50 | remaining activity at 30 µM
[2H]C([2H])([2H])c1cc(-c2cncc(F)c2)cc(-c2noc(-c3ccc(F)cn3)n2)n1 [Compound 35, 3-(5-fluoro-6′-(methyl-d3)-[3,4′-bipyridin]-2′-yl)-5-(5-fluoropyridin-2-yl)-1,2,4-oxadiazole] | 2% | 207 nM | –
COc1c(-c2cncc(F)c2)cc(-c2nc(-c3ccc(F)cn3)no2)nc1C [Compound 14, 5-(5-fluoro-5′-methoxy-6′-methyl-[3,4′-bipyridin]-2′-yl)-3-(5-fluoropyridin-2-yl)-1,2,4-oxadiazole] | 2% | 339 nM | –
Cc1nc(-c2nnc(-c3ccc(F)cn3)o2)cc(-c2cnsc2)c1F [Compound 110, 2-(5-fluoro-4-(isothiazol-4-yl)-6-methylpyridin-2-yl)-5-(5-fluoropyridin-2-yl)-1,3,4-oxadiazole] | 2% | 185 nM | –
Cc1cc(F)nc(-c2cc(-c3noc(-c4ccc(F)cn4)n3)nc(C)c2F)c1 [Compound 66, 3-(5′,6-difluoro-4,6′-dimethyl-[2,4′-bipyridin]-2′-yl)-5-(5-fluoropyridin-2-yl)-1,2,4-oxadiazole] | 9% | 1890 nM | –
Cc1nc(-c2nc(-c3ccc(F)cn3)no2)cc(-c2cncc(F)c2)c1F [Compound 59, 5-(5,5′-difluoro-6′-methyl-[3,4′-bipyridin]-2′-yl)-3-(5-fluoropyridin-2-yl)-1,2,4-oxadiazole] | 4% | 51 nM | –
COc1c(-c2cnccc2C)cc(-c2nc(-c3ccc(F)cn3)no2)nc1C [Compound 13, 3-(5-fluoropyridin-2-yl)-5-(5′-methoxy-4,6′-dimethyl-[3,4′-bipyridin]-2′-yl)-1,2,4-oxadiazole] | 2% | 482 nM | –
Cc1ccncc1-c1cc(-c2noc(-c3ncccc3F)n2)ncc1F [Compound 2, 3-(5′-fluoro-4-methyl-[3,4′-bipyridin]-2′-yl)-5-(3-fluoropyridin-2-yl)-1,2,4-oxadiazole] | 25% | 2630 nM | –
Cc1ccncc1-c1cc(-c2noc(-c3cccc(Cl)c3)n2)nc(C)c1F [Compound 23, 5-(3-chlorophenyl)-3-(5′-fluoro-4,6′-dimethyl-[3,4′-bipyridin]-2′-yl)-1,2,4-oxadiazole] | 2% | 117 nM | –
Cc1nc(-c2nnc(-c3ccc(F)cn3)o2)cc(-c2cnn(C(F)F)c2)c1F [Compound 74, 2-(4-(1-(difluoromethyl)-1H-pyrazol-4-yl)-5-fluoro-6-methylpyridin-2-yl)-5-(5-fluoropyridin-2-yl)-1,3,4-oxadiazole] | 2% | 148 nM | –
Cc1nc(-c2nnc(-c3ccccn3)o2)cc(-c2cncc(F)c2)c1F [Compound 79, 2-(5,5′-difluoro-6′-methyl-[3,4′-bipyridin]-2′-yl)-5-(pyridin-2-yl)-1,3,4-oxadiazole] | – | 673 nM | 2%
Cc1ccncc1-c1cc(-c2noc(-c3cc(F)ccn3)n2)ncc1F [Compound 3, 3-(5′-fluoro-4-methyl-[3,4′-bipyridin]-2′-yl)-5-(4-fluoropyridin-2-yl)-1,2,4-oxadiazole] | 2% | 744 nM | –
Cc1nc(-c2noc(-c3ccc(F)cn3)n2)cc(-c2cncc(C(F)(F)F)c2)c1F [Compound 33, 3-(5′-fluoro-6′-methyl-5-(trifluoromethyl)-[3,4′-bipyridin]-2′-yl)-5-(5-fluoropyridin-2-yl)-1,2,4-oxadiazole] | 9% | 1020 nM | –
COc1c(-c2cnn(C(F)F)c2)cc(-c2noc(-c3ccc(F)cn3)n2)nc1C [Compound 12, 3-(4-(1-(difluoromethyl)-1H-pyrazol-4-yl)-5-methoxy-6-methylpyridin-2-yl)-5-(5-fluoropyridin-2-yl)-1,2,4-oxadiazole] | 2% | 1110 nM | –
Cc1nc(-c2n[nH]c(-c3ccc(F)cc3)n2)cc(-c2cncc(F)c2)c1F [Compound 99, 3′,5-difluoro-6′-(5-(4-fluorophenyl)-1H-1,2,4-triazol-3-yl)-2′-methyl-3,4′-bipyridine] | 2% | 47 nM | –
Cc1nc(-c2noc(-c3ccc(F)cn3)n2)cc(-c2cncc(F)c2C)c1F [Compound 41, 3-(5,5′-difluoro-4,6′-dimethyl-[3,4′-bipyridin]-2′-yl)-5-(5-fluoropyridin-2-yl)-1,2,4-oxadiazole] | 2% | 304 nM | –
Cc1ccncc1-c1cc(-c2noc(-c3cccc(F)c3)n2)nc(C)c1F [Compound 20, 3-(5′-fluoro-4,6′-dimethyl-[3,4′-bipyridin]-2′-yl)-5-(3-fluorophenyl)-1,2,4-oxadiazole] | 2% | 49 nM | –

SMILES | remaining activity at 30 µM (% Glu max at 30 μM) | IC50 | remaining activity at 30 µM
Cc1nc(-c2nnc(-c3ccc(F)cn3)o2)cc(-c2cncc(F)c2)c1F [Compound 43, 2-(5,5′-difluoro-6′-methyl-[3,4′-bipyridin]-2′-yl)-5-(5-fluoropyridin-2-yl)-1,3,4-oxadiazole] | – | 179 nM | 2%
Cc1nc(-c2nc(-c3ccc(F)cn3)no2)cc(-c2cnn(C(F)F)c2)c1F [Compound 9, 5-(4-(1-(difluoromethyl)-1H-pyrazol-4-yl)-5-fluoro-6-methylpyridin-2-yl)-3-(5-fluoropyridin-2-yl)-1,2,4-oxadiazole] | 2% | 328 nM | –
Cc1nc(-c2noc(-c3ccc(F)cn3)n2)cc(-c2ccc(C(F)(F)F)nc2)c1F [Compound 29, 3-(5′-fluoro-6′-methyl-6-(trifluoromethyl)-[3,4′-bipyridin]-2′-yl)-5-(5-fluoropyridin-2-yl)-1,2,4-oxadiazole] | 37% | 1720 nM | –
Cc1ccncc1-c1cc(-c2noc(-c3cc(Cl)ccn3)n2)nc(C)c1F [Compound 91, 5-(4-chloropyridin-2-yl)-3-(5′-fluoro-4,6′-dimethyl-[3,4′-bipyridin]-2′-yl)-1,2,4-oxadiazole] | 2% | 155 nM | –
Fc1ccc(-c2nnc(-c3cc(-c4cncc(F)c4)cc(C(F)F)n3)o2)nc1 [Compound 84, 2-(6′-(difluoromethyl)-5-fluoro-[3,4′-bipyridin]-2′-yl)-5-(5-fluoropyridin-2-yl)-1,3,4-oxadiazole] | 1% | 359 nM | –
Cc1cc(CC2CCOCC2)cc(-c2noc(-c3ccc(F)cn3)n2)n1 [Compound 71, 5-(5-fluoropyridin-2-yl)-3-(6-methyl-4-((tetrahydro-2H-pyran-4-yl)methyl)pyridin-2-yl)-1,2,4-oxadiazole] | 45% | > 10000 nM | –
Cc1nc(-c2nnc(-c3ccc(F)cc3)o2)cc(-c2cncc(F)c2)c1F [Compound 82, 2-(5,5′-difluoro-6′-methyl-[3,4′-bipyridin]-2′-yl)-5-(4-fluorophenyl)-1,3,4-oxadiazole] | – | 778 nM | 2%
Cc1nc(-c2n[nH]c(-c3ccccc3F)n2)cc(-c2cncc(F)c2)c1F [Compound 98, 3′,5-difluoro-6′-(5-(2-fluorophenyl)-1H-1,2,4-triazol-3-yl)-2′-methyl-3,4′-bipyridine] | 1% | 82 nM | –
Cc1ccncc1-c1cc(-c2noc(C(F)c3ccccc3)n2)nc(C)c1F (stereo not shown) [Compound 89, 5-(fluoro(phenyl)methyl)-3-(5′-fluoro-4,6′-dimethyl-[3,4′-bipyridin]-2′-yl)-1,2,4-oxadiazole] | 3% | 3600 nM | –
Cc1ccncc1-c1cc(-c2noc(Cc3ccnn3C)n2)nc(C)c1F [Compound 56, 3-(5′-fluoro-4,6′-dimethyl-[3,4′-bipyridin]-2′-yl)-5-((1-methyl-1H-pyrazol-5-yl)methyl)-1,2,4-oxadiazole] | 50% | > 10000 nM | –
Cc1nc(-c2noc(-c3ccccc3F)n2)cc(-c2cncc(F)c2)c1F [Compound 47, 3-(5,5′-difluoro-6′-methyl-[3,4′-bipyridin]-2′-yl)-5-(2-fluorophenyl)-1,2,4-oxadiazole] | 34% | 5500 nM | –
Cc1csc(-c2nc(-c3cc(-c4cncc(F)c4)c(F)c(C)n3)no2)n1 [Compound 16, 3-(5,5′-difluoro-6′-methyl-[3,4′-bipyridin]-2′-yl)-5-(4-methylthiazol-2-yl)-1,2,4-oxadiazole] | 9% | 613 nM | –
Cc1cccc(-c2nnc(-c3cc(-c4cncc(F)c4)c(F)c(C)n3)o2)n1 [Compound 58, 2-(5,5′-difluoro-6′-methyl-[3,4′-bipyridin]-2′-yl)-5-(6-methylpyridin-2-yl)-1,3,4-oxadiazole] | – | > 10000 nM | 31%
COc1c(-c2cncc(F)c2)cc(-c2n[nH]c(-c3ccccc3F)n2)nc1C [Compound 100, 5-fluoro-6′-(5-(2-fluorophenyl)-1H-1,2,4-triazol-3-yl)-3′-methoxy-2′-methyl-3,4′-bipyridine] | 2% | 300 nM | –
Cc1ccc(-c2nc(-c3cc(-c4cnccc4C)c(F)c(C)n3)no2)nc1 [Compound 64, 3-(5′-fluoro-4,6′-dimethyl-[3,4′-bipyridin]-2′-yl)-5-(5-methylpyridin-2-yl)-1,2,4-oxadiazole] | 39% | > 10000 nM | –
COc1cc(C#N)cc(-c2cc(-c3nnc(-c4ccc(F)cn4)o3)nc(C)c2F)c1 [Compound 109, 3-(3-fluoro-6-(5-(5-fluoropyridin-2-yl)-1,3,4-oxadiazol-2-yl)-2-methylpyridin-4-yl)-5-methoxybenzonitrile] | 2% | 66 nM | –
